Columns and labels:
CLP-induced Sepsis model = test: CLP-induced sepsis model; assay type: in vivo, ICR mice
Experimental: After ICR mice (25-30 g in body weight; MJ Ltd.) had been anesthetized with pentobarbital, right abdominal sites of the mice were dissected in a length of 1 cm to expose their cecum, and sites below the ileocecal valve were ligated. And then, after 4˜6 punctures had been created on the cecum with 21-gauge needle, the abdomen was sutured again to cause peritonitis, thereby inducing Sepsis.
After the peritoneal cavity of mice had been exposed, it was washed with sterilized saline (2 ml). The resultant solution was diluted with HBSS (Sigma Chemical Co., USA) in a ratio of 1/1000, and then 10 μl of each diluted solution was spread on Trypticase Soy agar (BBL, Becton Dickinson Co., USA) plates. After overnight incubation at 37° C., colony forming unit (CFU) was measured.
7 mice were administered with 1-stearoyl LPC (Sigma Chemical Co., USA) dissolved in 1% BSA solution containing no fatty acid in an amount of 10 mg/kg by subcutaneous injection 2 and 14 hours after the CLP surgery, respectively (experimental group). The remaining 7 mice were administered with 1% BSA solution containing no fatty acid of the same amount as above in the same manner (control group). The numbers of intraperitoneal E. coli cells in the ICR mice of experimental and control groups were measured in accordance with Reference Example 3, 24 hours after the CLP surgery.
Each 10 ICR mice were intraperitoneally administered with 1-stearoyl LPC (Sigma Chemical Co., USA) dissolved in 1% BSA solution containing no fatty acid in amounts of 5, 10, and 20 mg/kg, respectively, four times at intervals of 12 hours, 2 hours after the CLP surgery (experimental group-1, -2 and -3). The remaining 10 ICR mice were administered only with 1% BSA solution containing no fatty acid (control group). And then, the survival rates of mice in experimental- and control groups were investigated over the lapse of time.
10 mice for the experimental group were intraperitoneally administered with 1-stearoyl LPC (Sigma Chemical Co., USA) dissolved in 1% BSA solution containing no fatty acid in an amount of 10 mg/kg, four times at intervals of 12 hours, 10 hours after the CLP surgery. The remaining 10 mice for the control group were administered only with 1% BSA solution containing no fatty acid. Thereafter, the survival rates of ICR mice in experimental- and control groups were investigated over the lapse of time.
CLP-induced Sepsis model mice were subcutaneously injected with SPC, instead of 1-stearoyl LPC, in dosages of 3 mg/kg and 30 mg/kg four times at intervals of 12 hours, 2 hours after the CLP surgery, respectively. The survival rates of mice were investigated.

[1] = tested on: myeloperoxidase (MPO) in pulmonary tissues; test: LPS-induced (intratracheal) acute lung injury model, lung MPO activity; assay type: in vivo, ICR mice
Experimental: The activity of myeloperoxidase (MPO), an indicator of neutrophils, in pulmonary tissues was determined according to the methods of Goldblum et al (J. Appl. physiol. 59: 1978, 1985) and Parey et al (J. Immunol. 160:1007, 1998). First, mice were sacrificed and pulmonary tissues were obtained therefrom. The tissues had been homogenized in potassium phosphate buffer, and centrifuged to obtain pellets. These pellets were sonicated in potassium phosphate buffer containing 0.5% hexadecyltrimethylammonium bromide (HTAB), and incubated at 60° C. for 120 min. After centrifugation, supernatants were obtained. 0.02 ml of supernatants was mixed with potassium phosphate buffer solution (0.18 ml) containing o-dianisidine dihydrochloride of 0.167 mg/ml and 0.0005% hydrogen peroxide. Accordingly, the absorbance of the mixture was determined at a wavelength of 460 nm.
Mice were intratracheally administered with LPS to cause direct acute lung injury, thereby inducing acute respiratory distress syndrome.
ICR mice (25-30 g in body weight; MJ Ltd.) were divided into five groups of 7 mice (Sham group, experimental groups-1, -2, -3 and a control group). Mice of each group were anesthetized with pentobarbital, their skins were dissected in a length of 1 cm to expose their bronchia. […]

SMILES: CCCCCCCCCCCCCCCCCC(=O)OCC(O)COP(=O)([O-])OCC[N+](C)(C)C (centres unmarked) [1-stearoyl LPC, 1-stearoyl (18:0) lysophosphatidylcholine]
- therapeutic effect (survival rate) when septicemia already developed (CLP-induced Sepsis model; 10 mg/kg intraperitoneal, four times at intervals of 12 hours, starting 10 hours after CLP surgery): excellent therapeutic effect
- number of intraperitoneal E. coli cells (CLP-induced Sepsis model; 10 mg/kg subcutaneous, 2 and 14 hours after CLP surgery, 24 hours after surgery, P<0.01): remarkably decreased
- survival rate (CLP-induced Sepsis model; 5, 10 and 20 mg/kg intraperitoneal, four times at intervals of 12 hours, starting 2 hours after CLP surgery): much higher than that of the mice in control group
- activity of MPO in pulmonary tissues ([1]; 20 mg/kg subcutaneous (experimental group-3), p<0.01): the most excellent effects
- activity of MPO in pulmonary tissues ([1]; 5, 10 and 20 mg/kg subcutaneous, 2 and 14 hours after intratracheal LPS, 24 hours after LPS, vs control group): suppressed in a concentration-dependent manner
